Data from patent US20210045385A1, “PYRIDAZINONE-SUBSTITUTED KETOXIMES AS HERBICIDES” (FMC Corporation, priority 2018, published 2021).

Assays:
Assay type in all cases: in vivo
[1] = system: Italian ryegrass (Lolium mutiflorum); experiment: Test C preemergence, visual plant response rating
Method in brief: (§1)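 Seeds sown in a loam–sand blend got a directed preemergence soil spray; postemergence plants (2–10 cm, one- to two-leaf stage) were sprayed with compound in a non-phytotoxic solvent plus surfactant. Injury was scored visually against untreated controls after about 10 d in a greenhouse on a 0–100 scale (100 = complete control).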

[2] = system: barnyardgrass (Echinochloa crus-galli); experiment: Test C preemergence, visual plant response rating
Method in brief: as §1

[3] = system: foxtail, giant (giant foxtail, Setaria faberi); experiment: Test C preemergence, visual plant response rating
Method in brief: as §1

kochia (Bassia scoparia) [4] = experiment: Test C preemergence, visual plant response rating
Method in brief: as §1

[5] = system: pigweed (Amaranthus retroflexus); experiment: Test C preemergence, visual plant response rating
Method in brief: as §1

[6] = system: ragweed (common ragweed, Ambrosia artemisiifolia); experiment: Test C preemergence, visual plant response rating
Method in brief: as §1

[7] = system: Italian ryegrass (Lolium mutiflorum); experiment: Test C postemergence, visual plant response rating
Method in brief: as §1

[8] = system: barnyardgrass (Echinochloa crus-galli); experiment: Test C postemergence, visual plant response rating
Method in brief: as §1

[9] = system: blackgrass (Alopecurus myosuroides); experiment: Test C postemergence, visual plant response rating
Method in brief: as §1

corn (Zea mays) = experiment: Test C postemergence, visual plant response rating
Method in brief: as §1

[10] = system: foxtail, giant (giant foxtail, Setaria faberi); experiment: Test C postemergence, visual plant response rating
Method in brief: as §1

[11] = system: galium (catchweed bedstraw, Galium aparine); experiment: Test C postemergence, visual plant response rating
Method in brief: as §1

kochia (Bassia scoparia) [12] = experiment: Test C postemergence, visual plant response rating
Method in brief: as §1

[13] = system: pigweed (Amaranthus retroflexus); experiment: Test C postemergence, visual plant response rating
Method in brief: as §1

[14] = system: ragweed (common ragweed, Ambrosia artemisiifolia); experiment: Test C postemergence, visual plant response rating
Method in brief: as §1

[15] = system: wheat (Triticum aestivum); experiment: Test C postemergence, visual plant response rating
Method in brief: as §1

[16] = system: barnyardgrass (Echinochloa crus-galli); experiment: Test D flooded paddy test, visual plant response rating; conditions: 250 g ai/ha, scale 0 to 100 (0 no effect, 100 complete control), 13 to 15 d
Method in brief: (§2)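 Greenhouse paddy assay scored on a 0–100 visual scale after 13 to 15 d, where 100 means complete control and a dash marks no result; dosing was into 3 cm floodwater over 2-leaf plants.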

[17] = system: duck salad (Heteranthera limosa); experiment: as above; conditions: 250 g ai/ha, scale 0 to 100 (0 no effect, 100 complete control), 13 to 15 d
Method in brief: as §2

rice (Oryza sativa) = experiment: as above; conditions: 250 g ai/ha, scale 0 to 100 (0 no effect, 100 complete control), 13 to 15 d
Method in brief: as §2

[18] = system: sedge umbrella (small-flower umbrella sedge, Cyperus difformis); experiment: as above; conditions: 250 g ai/ha, scale 0 to 100 (0 no effect, 100 complete control), 13 to 15 d
Method in brief: as §2

[19] = Test C, 31 g ai/ha, 0 is no effect, 100 is complete control
[20] = Test C, 125 g ai/ha, 0 is no effect, 100 is complete control
[21] = Test C, postemergence, 125 g ai/ha
[22] = Test C, postemergence, 31 g ai/ha

Structure (SMILES) | Ryegrass, Italian plant response rating (0 to 100 scale) [1, 19] | Barnyardgrass plant response rating (0 to 100 scale) [2, 19] | Foxtail, Giant plant response rating (0 to 100 scale) [3, 19] | Kochia plant response rating (0 to 100 scale) (kochia (Bassia scoparia) [4]; [19]) | Pigweed plant response rating (0 to 100 scale) [5, 19] | Ragweed plant response rating (0 to 100 scale) [6, 19] | Ryegrass, Italian plant response rating (0 to 100 scale) ([7]; Postemergence, 31 g ai/ha) | Ryegrass, Italian plant response rating (0 to 100 scale) [7, 21] | Barnyardgrass plant response rating (0 to 100 scale) [8, 21] | Blackgrass plant response rating (0 to 100 scale) [9, 21] | Corn plant response rating (0 to 100 scale) (corn (Zea mays); [21]) | Foxtail, Giant plant response rating (0 to 100 scale) [10, 21] | Galium plant response rating (0 to 100 scale) [11, 21] | Kochia plant response rating (0 to 100 scale) (kochia (Bassia scoparia) [12]; [21]) | Pigweed plant response rating (0 to 100 scale) ([13]; Postemergence, 31 g ai/ha) | Pigweed plant response rating (0 to 100 scale) [13, 21] | Ragweed plant response rating (0 to 100 scale) ([14]; Postemergence, 31 g ai/ha) | Ragweed plant response rating (0 to 100 scale) [14, 21] | Wheat plant response rating (0 to 100 scale) ([15]; Postemergence, 31 g ai/ha) | Wheat plant response rating (0 to 100 scale) [15, 21] | other results
CCCCON=C(c1cc(Cl)cc(Cl)c1Cl)c1c(O)c(C)nn(C)c1=O [Compound 268] | 20 | 30 | 70 | 0 | 0 | 10 | 60 | 100 | 60 | 20 | 30 | 90 | 50 | 20 | 10 | 20 | 70 | 100 | 0 | 20 | Ryegrass, Italian plant response rating (0 to 100 scale) [1, 20]: 90; Barnyardgrass plant response rating (0 to 100 scale) [2, 20]: 70; Foxtail, Giant plant response rating (0 to 100 scale) [3, 20]: 100; Kochia plant response rating (0 to 100 scale) (kochia (Bassia scoparia) [4]; [20]): 0; Pigweed plant response rating (0 to 100 scale) [5, 20]: 0; Ragweed plant response rating (0 to 100 scale) [6, 20]: 60; Barnyardgrass plant response rating (0 to 100 scale) ([8]; Postemergence, 31 g ai/ha): 50; Blackgrass plant response rating (0 to 100 scale) ([9]; Postemergence, 31 g ai/ha): 0; Corn plant response rating (0 to 100 scale) (corn (Zea mays); Postemergence, 31 g ai/ha): 0; Foxtail, Giant plant response rating (0 to 100 scale) ([10]; Postemergence, 31 g ai/ha): 60; Galium plant response rating (0 to 100 scale) ([11]; Postemergence, 31 g ai/ha): 20; Kochia plant response rating (0 to 100 scale) (kochia (Bassia scoparia) [12]; Postemergence, 31 g ai/ha): 10; Plant response rating, Barnyardgrass (Flood) [16]: 0; Plant response rating, Ducksalad (Flood) [17]: 0; Plant response rating, Rice (Flood) (rice (Oryza sativa)): 0; Plant response rating, Sedge, Umbrella (Flood) [18]: 0
Cc1nn(C)c(=O)c(/C(=N/OCc2ccccc2)c2ccc(F)c3ccccc23)c1O [Compound 158] | 0 | 20 | 10 | 0 | 0 | 40 | 0 | 20 | 70 | 10 | 10 | 70 | 0 | 0 | 50 | 50 | 40 | 60 | 0 | 0 | Ryegrass, Italian plant response rating (0 to 100 scale) ([1]; 125 g ai/ha): 0; Barnyardgrass plant response rating (0 to 100 scale) ([2]; 125 g ai/ha): 30; Foxtail, Giant plant response rating (0 to 100 scale) ([3]; 125 g ai/ha): 80; Kochia plant response rating (0 to 100 scale) (kochia (Bassia scoparia) [4]; 125 g ai/ha): 0; Pigweed plant response rating (0 to 100 scale) ([5]; 125 g ai/ha): 50; Ragweed plant response rating (0 to 100 scale) ([6]; 125 g ai/ha): 40; Barnyardgrass plant response rating (0 to 100 scale) [8, 22]: 50; Blackgrass plant response rating (0 to 100 scale) [9, 22]: 0; Corn plant response rating (0 to 100 scale) (corn (Zea mays); [22]): 0; Foxtail, Giant plant response rating (0 to 100 scale) [10, 22]: 30; Galium plant response rating (0 to 100 scale) [11, 22]: 90; Kochia plant response rating (0 to 100 scale) (kochia (Bassia scoparia) [12]; [22]): 0; Plant response rating, Barnyardgrass (Flood) [16]: 45; Plant response rating, Ducksalad (Flood) [17]: 50; Plant response rating, Rice (Flood) (rice (Oryza sativa)): 15; Plant response rating, Sedge, Umbrella (Flood) [18]: 65
C#CCO/N=C(/c1c(O)c(C)nn(C)c1=O)c1cccc2cc(Cl)ccc12 [Compound 242] | 10 | 60 | 80 | 30 | 100 | 80 | 40 | 90 | 90 | 90 | 20 | 80 | 100 | 50 | 90 | 100 | 50 | 90 | 0 | 60 | Ryegrass, Italian plant response rating (0 to 100 scale) [1, 20]: 90; Barnyardgrass plant response rating (0 to 100 scale) [2, 20]: 90; Foxtail, Giant plant response rating (0 to 100 scale) [3, 20]: 100; Kochia plant response rating (0 to 100 scale) (kochia (Bassia scoparia) [4]; [20]): 50; Pigweed plant response rating (0 to 100 scale) [5, 20]: 100; Ragweed plant response rating (0 to 100 scale) [6, 20]: 90; Barnyardgrass plant response rating (0 to 100 scale) ([8]; Postemergence, 31 g ai/ha): 80; Blackgrass plant response rating (0 to 100 scale) ([9]; Postemergence, 31 g ai/ha): 80; Corn plant response rating (0 to 100 scale) (corn (Zea mays); Postemergence, 31 g ai/ha): 0; Foxtail, Giant plant response rating (0 to 100 scale) ([10]; Postemergence, 31 g ai/ha): 70; Galium plant response rating (0 to 100 scale) ([11]; Postemergence, 31 g ai/ha): 80; Kochia plant response rating (0 to 100 scale) (kochia (Bassia scoparia) [12]; Postemergence, 31 g ai/ha): 40; Plant response rating, Barnyardgrass (Flood) [16]: 95; Plant response rating, Ducksalad (Flood) [17]: 98; Plant response rating, Rice (Flood) (rice (Oryza sativa)): 85; Plant response rating, Sedge, Umbrella (Flood) [18]: 100
CO/N=C(/c1cccc(/C=C/Cl)c1)c1c(O)c(C)nn(C)c1=O [Compound 285] | 0 | 0 | 0 | 0 | 0 | 0 | 0 | 0 | 30 | 10 | 0 | 20 | 60 | 20 | 0 | 70 | 30 | 60 | 0 | 0 | Ryegrass, Italian plant response rating (0 to 100 scale) [1, 20]: 10; Barnyardgrass plant response rating (0 to 100 scale) [2, 20]: 0; Foxtail, Giant plant response rating (0 to 100 scale) [3, 20]: 0; Kochia plant response rating (0 to 100 scale) (kochia (Bassia scoparia) [4]; [20]): 0; Pigweed plant response rating (0 to 100 scale) [5, 20]: 0; Ragweed plant response rating (0 to 100 scale) [6, 20]: 10; Barnyardgrass plant response rating (0 to 100 scale) ([8]; Postemergence, 31 g ai/ha): 20; Blackgrass plant response rating (0 to 100 scale) ([9]; Postemergence, 31 g ai/ha): 0; Corn plant response rating (0 to 100 scale) (corn (Zea mays); Postemergence, 31 g ai/ha): 0; Foxtail, Giant plant response rating (0 to 100 scale) ([10]; Postemergence, 31 g ai/ha): 10; Galium plant response rating (0 to 100 scale) ([11]; Postemergence, 31 g ai/ha): 50; Kochia plant response rating (0 to 100 scale) (kochia (Bassia scoparia) [12]; Postemergence, 31 g ai/ha): 10; Plant response rating, Barnyardgrass (Flood) [16]: 0; Plant response rating, Ducksalad (Flood) [17]: 0; Plant response rating, Rice (Flood) (rice (Oryza sativa)): 0; Plant response rating, Sedge, Umbrella (Flood) [18]: 0
